Results from the NIST ThermoML archive (doi:10.1021/je900050z).
Numbers after ± are expanded uncertainties.

Details: Liquid

CCCCCCO [hexan-1-ol]
Details	vapor or sublimation pressure [kPa]
343.46 K	2.04 ± 0.17
344.2 K	2.16 ± 0.18
344.6 K	2.23 ± 0.18
345.36 K	2.35 ± 0.19
346.17 K	2.47 ± 0.2
347.27 K	2.67 ± 0.22
348.1 K	2.79 ± 0.23
348.35 K	2.85 ± 0.23
349.38 K	3.04 ± 0.25
349.75 K	3.11 ± 0.25
350.75 K	3.32 ± 0.27
351.39 K	3.44 ± 0.28
352.2 K	3.64 ± 0.29
352.63 K	3.73 ± 0.3
353 K	3.83 ± 0.31
353.31 K	3.89 ± 0.31
353.82 K	3.96 ± 0.32
355.2 K	4.31 ± 0.35
357.01 K	4.79 ± 0.38
358.22 K	5.15 ± 0.41
359.43 K	5.51 ± 0.44
360.34 K	5.79 ± 0.46
361.12 K	6.04 ± 0.48
361.86 K	6.29 ± 0.5
363.85 K	6.99 ± 0.56
364.61 K	7.27 ± 0.58
365.58 K	7.64 ± 0.61
366.3 K	7.92 ± 0.63
367.44 K	8.4 ± 0.67
368.05 K	8.67 ± 0.69
368.99 K	9.08 ± 0.73
369.67 K	9.4 ± 0.75
370.24 K	9.67 ± 0.77
370.83 K	9.95 ± 0.8
371.45 K	10.27 ± 0.82
372.1 K	10.59 ± 0.85
373 K	11.05 ± 0.88
373.67 K	11.43 ± 0.92
374.19 K	11.73 ± 0.94
375.14 K	12.27 ± 0.98
375.93 K	12.73 ± 1
376.59 K	13.15 ± 1.1
377.22 K	13.53 ± 1.1
377.83 K	13.71 ± 1.1
378.01 K	13.85 ± 1.1
378.37 K	14.15 ± 1.1
378.72 K	14.4 ± 1.1
379.1 K	14.65 ± 1.2
379.46 K	14.91 ± 1.2
379.75 K	15.12 ± 1.2
380.06 K	15.37 ± 1.2
380.41 K	15.61 ± 1.2
380.87 K	15.95 ± 1.3
381.15 K	16.15 ± 1.3
381.45 K	16.37 ± 1.3
381.89 K	16.71 ± 1.3
382.25 K	16.97 ± 1.4
382.56 K	17.21 ± 1.4
382.85 K	17.44 ± 1.4
383.18 K	17.69 ± 1.4
383.34 K	17.84 ± 1.4
383.67 K	18.09 ± 1.4
384.08 K	18.43 ± 1.5
384.87 K	19.05 ± 1.5
385.37 K	19.47 ± 1.6
385.86 K	19.91 ± 1.6
386.31 K	20.31 ± 1.6
386.83 K	20.79 ± 1.7
387.23 K	21.15 ± 1.7
387.62 K	21.48 ± 1.7
388.1 K	21.91 ± 1.8
388.59 K	22.37 ± 1.8
389.05 K	22.79 ± 1.8
389.48 K	23.2 ± 1.9
389.89 K	23.6 ± 1.9
390.23 K	23.95 ± 1.9
390.65 K	24.36 ± 1.9
390.93 K	24.67 ± 2
391.4 K	25.13 ± 2
391.75 K	25.51 ± 2
392.06 K	25.83 ± 2.1
392.51 K	26.31 ± 2.1
392.77 K	26.59 ± 2.1
393.14 K	27 ± 2.2
